In patent US11707440B2 (priority 2017, dated 2023):
Where two headings read alike, the source gives them in different places.

What was measured:
[1] = tested on: subjects with MDD at imminent risk for suicide
[2] = tested on: subjects with MDD at imminent risk for suicide; test: MADRS total score, study […]2001; format: in vivo, human; settings: ITT analysis set; for MADRS total score change, Diff. of LS Means (SE) minus placebo: ANCOVA LOCF
Source text: Primary efficacy variable/Primary Time point: Change from baseline (Day 1, predose) to Day 1, 4-hours postdose in MADRS total score. The MADRS consists of 10 items that cover all of the core depressive symptoms, with each item scoring from 0 (item is not present or is normal) to 6 (severe or continuous presence of the symptom). A higher score represents a more severe condition.
The primary efficacy endpoint is the change in MADRS total score from baseline to Day 1: 4-hours postdose. MADRS total scores range from 0 to 60. […] As this is a phase 2a proof-of-concept study, statistical significance is based on a two-sided alpha level of 0.20. All p-values presented in this document are two-sided.

[3] = adverse events, follow up phase, safety (FU) analysis set
[4] = double-blind phase, safety analysis set
[5] = serious adverse events, follow up phase, safety (FU) analysis set
[6] = treatment-emergent serious adverse events, double-blind phase, safety analysis set

SMILES: CN[C@]1(c2ccccc2Cl)CCCCC1=O [Esketamine 84 mg]
- Back pain [1, 3]: 1 (3.7%) no. subjects (%)
- Bronchitis [1, 3]: 0 no. subjects (%)
- Cellulitis [1, 3]: 0 no. subjects (%)
- Cogwheel rigidity [1, 3]: 1 (3.7%) no. subjects (%)
- Contusion [1, 3]: 1 (3.7%) no. subjects (%)
- Depressed mood [1, 3]: 0 no. subjects (%)
- Depression [1, 3]: 1 (3.7%) no. subjects (%)
- Diarrhea [1, 3]: 1 (3.7%) no. subjects (%)
- Dizziness [1, 3]: 1 (3.7%) no. subjects (%)
- Drug hypersensitivity [1, 3]: 0 no. subjects (%)
- Dry mouth [1, 3]: 2 (7.4%) no. subjects (%)
- Dysgeusia [1, 3]: 1 (3.7%) no. subjects (%)
- Ear and labyrinth disorders [1, 3]: 0 no. subjects (%)
- Ear infection [1, 3]: 1 (3.7%) no. subjects (%)
- Epistaxis [1, 3]: 1 (3.7%) no. subjects (%)
- Flank pain [1, 3]: 1 (3.7%) no. subjects (%)
- Folliculitis [1, 3]: 0 no. subjects (%)
- Gastrointestinal disorders [1, 3]: 6 (22.2%) no. subjects (%)
- Headache [1, 3]: 2 (7.4%) no. subjects (%)
- Immune system disorders [1, 3]: 0 no. subjects (%)
- Infections and infestations [1, 3]: 3 (11.1%) no. subjects (%)
- Influenza [1, 3]: 0 no. subjects (%)
- Injury, poisoning and procedural complications [1, 3]: 2 (7.4%) no. subjects (%)
- Insomnia [1, 3]: 3 (11.1%) no. subjects (%)
- Intentional self-injury [1, 3]: 1 (3.7%) no. subjects (%)
- Loss of consciousness [1, 3]: 1 (3.7%) no. subjects (%)
- Meniere's disease [1, 3]: 0 no. subjects (%)
- Metabolism and nutrition disorders [1, 3]: 0 no. subjects (%)
- Migraine [1, 3]: 1 (3.7%) no. subjects (%)
- Musculoskeletal and connective tissue disorders [1, 3]: 2 (7.4%) no. subjects (%)
- Musculoskeletal chest pain [1, 3]: 1 (3.7%) no. subjects (%)
- Musculoskeletal pain [1, 3]: 1 (3.7%) no. subjects (%)
- Nasal congestion [1, 3]: 1 (3.7%) no. subjects (%)
- Nasopharyngitis [1, 3]: 1 (3.7%) no. subjects (%)
- Nausea [1, 3]: 0 no. subjects (%)
- Neck pain [1, 3]: 1 (3.7%) no. subjects (%)
- Nervous system disorders [1, 3]: 6 (22.2%) no. subjects (%)
- Night sweats [1, 3]: 1 (3.7%) no. subjects (%)
- Panic reaction [1, 3]: 0 no. subjects (%)
- Pelvic pain [1, 3]: 1 (3.7%) no. subjects (%)
- Pharyngitis [1, 3]: 2 (7.4%) no. subjects (%)
- Polydipsia [1, 3]: 0 no. subjects (%)
- Procedural pain [1, 3]: 0 no. subjects (%)
- Psychiatric disorders [1, 3]: 5 (18.5%) no. subjects (%)
- Rash [1, 3]: 0 no. subjects (%)
- Renal and urinary disorders [1, 3]: 0 no. subjects (%)
- Renal failure [1, 3]: 0 no. subjects (%)
- Reproductive system and breast disorders [1, 3]: 1 (3.7%) no. subjects (%)
- Respiratory, thoracic and mediastinal disorders [1, 3]: 2 (7.4%) no. subjects (%)
- Restlessness [1, 3]: 1 (3.7%) no. subjects (%)
- Road traffic accident [1, 3]: 1 (3.7%) no. subjects (%)
- Sedation [1, 3]: 1 (3.7%) no. subjects (%)
- Self-injurious ideation [1, 3]: 0 no. subjects (%)
- Sexual dysfunction [1, 3]: 0 no. subjects (%)
- Skin and subcutaneous tissue disorders [1, 3]: 1 (3.7%) no. subjects (%)
- Somnolence [1, 3]: 0 no. subjects (%)
- Suicidal ideation [1, 3]: 1 (3.7%) no. subjects (%)
- Suicide attempt [1, 3]: 0 no. subjects (%)
- Tooth impacted [1, 3]: 0 no. subjects (%)
- Toothache [1, 3]: 0 no. subjects (%)
- Total no. subjects with adverse events [1, 3]: 13 (48.1%) no. subjects (%)
- Tremor [1, 3]: 2 (7.4%) no. subjects (%)
- Upper respiratory tract infection [1, 3]: 1 (3.7%) no. subjects (%)
- Viral upper respiratory tract infection [1, 3]: 0 no. subjects (%)
- Vomiting [1, 3]: 1 (3.7%) no. subjects (%)
- Vulvovaginal mycotic infection [1, 3]: 1 (3.7%) no. subjects (%)
- 1 or more serious TEAE [1, 4]: 4 (11.4%) no. subjects (%)
- TEAE (total no. subjects with TEAE) [1, 4]: 33 (94.3%) no. subjects (%)
- TEAE leading to death [1, 4]: 0 no. subjects (%)
- TEAE leading to drug withdrawn [1, 4]: 5 (14.3%) no. subjects (%)
- Possibly related TEAE ([1]; double-blind phase, safety analysis set, relationship possible, probable, very likely): 29 (82.9%) no. subjects (%)
- Cellulitis [1, 5]: 0 no. subjects (%)
- Infections and infestations [1, 5]: 0 no. subjects (%)
- Psychiatric disorders [1, 5]: 1 (3.7%) no. subjects (%)
- Suicidal ideation [1, 5]: 1 (3.7%) no. subjects (%)
- Suicide attempt [1, 5]: 0 no. subjects (%)
- Total no. subjects with a serious adverse event [1, 5]: 1 (3.7%) no. subjects (%)
- Agitation [1, 6]: 1 (2.9%) no. subjects (%)
- Depressive symptom [1, 6]: 1 (2.9%) no. subjects (%)
- Psychiatric disorders [1, 6]: 4 (11.4%) no. subjects (%)
- Suicidal ideation [1, 6]: 2 (5.7%) no. subjects (%)
- MADRS total score, Mean (SD) ([2]; Baseline(DB), predose Day 1): 38.5 (6.17)
- MADRS total score, Median (Range) ([2]; Baseline(DB), predose Day 1): 38.0 (27; 49)
- MADRS total score change, Diff. of LS Means (SE) minus placebo ([2]; Day 1(DB): 4H): −5.3 (2.10)
- MADRS total score change from baseline, Mean (SD) ([2]; Day 1(DB): 4H, LOCF): −13.4 (9.03)
- MADRS total score change from baseline, Median (Range) ([2]; Day 1(DB): 4H, LOCF): −14.0 (−32; 1)
- MADRS total score, Median (Range) ([2]; Day 1(DB): 4H, LOCF): 23.0 (7; 48)
- MADRS total score change, Diff. of LS Means (SE) minus placebo ([2]; Day 2(DB)): −7.2 (2.85)
- MADRS total score change from baseline, Mean (SD) ([2]; Day 2(DB), LOCF): −19.3 (12.02)
- MADRS total score change from baseline, Median (Range) ([2]; Day 2(DB), LOCF): −19.0 (−41; 1)
- MADRS total score, Median (Range) ([2]; Day 2(DB), LOCF): 18.0 (3; 42)
- MADRS total score change, Diff. of LS Means (SE) minus placebo ([2]; End Point(DB)): −4.5 (3.14)
- MADRS total score change from baseline, Mean (SD) ([2]; End Point(DB), LOCF): −26.4 (14.52)
- MADRS total score change from baseline, Median (Range) ([2]; End Point(DB), LOCF): −25.0 (−46; 13)
- MADRS total score, Median (Range) ([2]; End Point(DB), LOCF): 8.0 (0; 44)
